Measurements as given in patent US20140057915A1, “KINASE INHIBITORS” (TOPIVERT PHARMA LIMITED, priority 2012, published 2014).

Tests used:
cSrc = cSrc (Homo sapiens, UniProt P12931); assay: c-Src enzyme inhibition (FRET); format: biochemical; conditions: Table 4a1
Method in brief: (§1)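 Enzyme was preincubated with test compound (added as 4, 0.4, 0.04 or 0.004 μg/mL solutions) for 2 hr at RT. FRET peptide (8 μM solution) and ATP solution (800 μM for c-Src, 60 μM for Syk) were then added for 1 hr, followed by 1 hr protease development.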

Syk = Syk (Homo sapiens, UniProt P43405); assay: Syk enzyme inhibition (FRET); format: biochemical; conditions: Table 4a1
Method in brief: as §1

GSK3α = GSK3α (Homo sapiens, UniProt P49840); assay: GSK 3α enzyme inhibition (FRET), Method 1; format: biochemical; conditions: Table 4a1
Method in brief: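 Z-LYTE FRET format. Enzyme (500 ng/mL stock) + compound (stocks 4–0.004 μg/mL), 2 hr RT; add peptide (8 μM stock) + ATP (40 μM stock), 1 hr; protease 1 hr; read donor/acceptor emission ratio.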

[1] = system: TNFα release, d-U937 cells; assay: LPS-induced TNFα release in d-U937 cells; format: cell-based; conditions: Homo sapiens, dU937; relative to 10 μg/mL BIRB796; Table 4c1; read-out: LPS Induced Release of Cytokine in d-U937 Cells, TNFα REC50
Method in brief: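 U937 cells differentiated with PMA (100 ng/mL, 48–72 hr), pre-treated with compound for 2 hr, then stimulated with E. coli LPS (0.1 μg/mL) for 4 hr. Supernatant cytokine measured by sandwich ELISA; inhibition versus vehicle control, REC50 from concentration-response curve.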

[2] = system: IL-8 release, d-U937 cells; assay: LPS-induced IL-8 release in d-U937 cells; format: cell-based; conditions: Homo sapiens, dU937; Table 4c1; read-out: LPS Induced Release of Cytokine in d-U937 Cells, IL-8 IC50
Method in brief: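 IL-8 release after a 4 hr challenge with LPS (0.1 μg/mL, E. coli 0111:B4) following a 2 hr compound pretreatment. Cells were human U937 monocytes differentiated to macrophage-type with PMA 100 ng/mL for 48–72 hr. Relative 50% effective concentration derived from concentration–response data.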

[3] = system: ICAM-1 expression, BEAS2B cells; assay: Poly I:C-induced ICAM-1 expression in BEAS2B cells; format: cell-based; conditions: Homo sapiens, BEAS-2B; read-out: Poly IC induced ICAM1 in BEAS2B, IC50
Method in brief: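 BEAS2B human bronchial epithelial cells pre-incubated 2 h with compound, then transfected with poly I:C (1 μg/mL) plus Oligofectamine. After 18 h, cell-surface ICAM-1 read by cell-based ELISA (A450–655), normalised to Crystal Violet cell number (A595); inhibition calculated against vehicle control at each concentration.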

d-U937 cells = assay: Cell viability: MTT assay; format: cell-based, human; conditions: 1 μg/mL
Method in brief: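 Differentiated U937 cells exposed to compound at 1 or 10 μg/mL, either 4 h in 5% FCS or 24 h in 10% FCS RPMI1640. MTT then added for 1 h, formazan dissolved in DMSO and read at 550 nm. Viability loss given as % versus 0.5% DMSO vehicle; apparent gains appear negative.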

Chain of GSK3α (P49840 whole entry): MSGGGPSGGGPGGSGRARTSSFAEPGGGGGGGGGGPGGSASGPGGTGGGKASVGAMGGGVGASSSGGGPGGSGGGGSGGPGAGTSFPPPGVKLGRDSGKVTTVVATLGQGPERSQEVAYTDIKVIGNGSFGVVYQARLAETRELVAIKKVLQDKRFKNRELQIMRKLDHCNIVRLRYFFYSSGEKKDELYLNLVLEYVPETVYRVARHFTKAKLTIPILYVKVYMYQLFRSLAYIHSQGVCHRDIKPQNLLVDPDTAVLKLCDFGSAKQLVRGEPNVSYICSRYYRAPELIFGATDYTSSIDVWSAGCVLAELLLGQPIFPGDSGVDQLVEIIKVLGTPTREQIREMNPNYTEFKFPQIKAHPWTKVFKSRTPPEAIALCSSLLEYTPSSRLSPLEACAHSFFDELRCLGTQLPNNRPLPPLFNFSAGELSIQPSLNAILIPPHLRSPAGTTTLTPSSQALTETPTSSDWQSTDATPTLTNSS
Chain of cSrc (P12931 whole entry): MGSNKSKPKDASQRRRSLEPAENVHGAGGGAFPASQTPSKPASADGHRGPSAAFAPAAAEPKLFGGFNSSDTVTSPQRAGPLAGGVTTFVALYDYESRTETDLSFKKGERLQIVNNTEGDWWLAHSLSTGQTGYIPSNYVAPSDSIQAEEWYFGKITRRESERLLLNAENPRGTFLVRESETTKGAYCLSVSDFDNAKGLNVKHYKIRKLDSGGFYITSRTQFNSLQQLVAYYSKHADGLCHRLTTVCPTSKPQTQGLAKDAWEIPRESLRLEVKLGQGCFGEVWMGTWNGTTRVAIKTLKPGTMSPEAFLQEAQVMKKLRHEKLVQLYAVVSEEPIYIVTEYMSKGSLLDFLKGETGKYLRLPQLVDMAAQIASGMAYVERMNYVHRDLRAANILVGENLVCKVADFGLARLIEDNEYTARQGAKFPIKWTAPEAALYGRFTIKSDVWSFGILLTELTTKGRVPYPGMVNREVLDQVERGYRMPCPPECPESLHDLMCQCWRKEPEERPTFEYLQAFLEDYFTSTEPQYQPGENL

SMILES | IC50 (cSrc) | IC50 (Syk) | IC50 (GSK3α) | EC50 [1] | IC50 [2] | IC50 [3] | Cell viability at time point in d-U937 cells, 4 h (d-U937 cells) | Cell viability at time point in d-U937 cells, 24 h (d-U937 cells)
COc1ccc(C(=O)NCCN(C)C)cc1Nc1nccc(Oc2ccc(NC(=O)Nc3cc(C(C)C)nn3-c3ccc(C)cc3)c3ccccc23)n1 [Example 28, N-(2-(dimethylamino)ethyl)-3-((4-((4-(3-(3-isopropyl-1-(p-tolyl)-1H-pyrazol-5-yl)ureido)naphthalen-1-yl)oxy)pyrimidin-2-yl)amino)-4-methoxybenzamide] | < 1 nM | 54 nM | > 14000 nM | 2.2 nM | 32.4 nM | 140 nM | −ve (−ve and +ve indicate that the value is below and above respectively, the no significant effect threshold, defined as 30% inhibition at 1 μg/mL at the time point indicated) | −ve (−ve and +ve indicate that the value is below and above respectively, the no significant effect threshold, defined as 30% inhibition at 1 μg/mL at the time point indicated)
Cc1ccc(-n2nc(C(C)(C)C)cc2NC(=O)Nc2ccc(Oc3ccnc(Nc4cccc(C(=O)NCCN(C)C)c4)n3)c3ccccc23)cc1 [Example 18, 3-((4-((4-(3-(3-(tert-butyl)-1-(p-tolyl)-1H-pyrazol-5-yl)ureido)naphthalen-1-yl)oxy)pyrimidin-2-yl)amino)-N-(2-(dimethylamino)ethyl)benzamide] | 7 nM | > 1440 nM | 295 nM | 1.5 nM | 1.8 nM | 2.3 nM | −ve (−ve and +ve indicate that the value is below and above respectively, the no significant effect threshold, defined as 30% inhibition at 1 μg/mL at the time point indicated) | −ve (−ve and +ve indicate that the value is below and above respectively, the no significant effect threshold, defined as 30% inhibition at 1 μg/mL at the time point indicated)
COc1cc(C(=O)NCCO)ccc1Nc1nccc(Oc2ccc(NC(=O)Nc3cc(C(C)(C)C)nn3-c3ccc(C)cc3)c3ccccc23)n1 [Example 4, 4-((4-((4-(3-(3-(tert-Butyl)-1-(p-tolyl)-1H-pyrazol-5-yl)ureido)naphthalen-1-yl)oxy)pyrimidin-2-yl)amino)-N-(2-hydroxyethyl)-3-methoxybenzamide] | 49 nM | 124 nM | > 14300 nM | 0.7 nM | 6.6 nM | 4.6 nM | −ve (−ve and +ve indicate that the value is below and above respectively, the no significant effect threshold, defined as 30% inhibition at 1 μg/mL at the time point indicated) | −ve (−ve and +ve indicate that the value is below and above respectively, the no significant effect threshold, defined as 30% inhibition at 1 μg/mL at the time point indicated)
CNC(=O)c1cccc(Nc2nccc(Oc3ccc(NC(=O)Nc4cc(C(C)(C)C)nn4-c4ccc(C)cc4)c4ccccc34)n2)c1 [Example 16, 3-((4-((4-(3-(3-(tert-butyl)-1-(p-tolyl)-1H-pyrazol-5-yl)ureido)naphthalen-1-yl)oxy)pyrimidin-2-yl)amino)-N-methylbenzamide] | 9 nM | 1390 nM | 1400 nM | 1.3 nM | 1.7 nM | 1.9 nM | −ve (−ve and +ve indicate that the value is below and above respectively, the no significant effect threshold, defined as 30% inhibition at 1 μg/mL at the time point indicated) | −ve (−ve and +ve indicate that the value is below and above respectively, the no significant effect threshold, defined as 30% inhibition at 1 μg/mL at the time point indicated)

The next lines start with results.

IC50 (cSrc) | IC50 (Syk) | IC50 (GSK3α) | EC50 [1] | IC50 [2] | SMILES | IC50 [3] | Cell viability at time point in d-U937 cells, 4 h (d-U937 cells) | Cell viability at time point in d-U937 cells, 24 h (d-U937 cells)
3 nM | 6 nM | 247 nM | 0.3 nM | 1.5 nM | COc1cc(Nc2nccc(Oc3ccc(NC(=O)Nc4cc(C(C)(C)C)nn4-c4ccc(C)cc4)c4ccccc34)n2)cc(C(=O)NCCN2CCOCC2)c1 [Example 52, 3-((4-((4-(3-(3-(tert-butyl)-1-(p-tolyl)-1H-pyrazol-5-yl)ureido)naphthalen-1-yl)oxy)pyrimidin-2-yl)amino)-5-methoxy-N-(2-morpholinoethyl)benzamide] | 5 nM | −ve (−ve and +ve indicate that the value is below and above respectively, the no significant effect threshold, defined as 30% inhibition at 1 μg/mL at the time point indicated) | −ve (−ve and +ve indicate that the value is below and above respectively, the no significant effect threshold, defined as 30% inhibition at 1 μg/mL at the time point indicated)
5 nM | 12 nM | > 13000 nM | 1.4 nM | 1.7 nM | COc1cc(Nc2nccc(Oc3ccc(NC(=O)Nc4cc(C(C)C)nn4-c4ccc(C)c(C)c4)c4ccccc34)n2)cc(C(=O)NCCN2CCOCC2)c1 [Example 56, 3-((4-((4-(3-(1-(3,4-dimethylphenyl)-3-isopropyl-1H-pyrazol-5-yl)ureido)naphthalen-1-yl)oxy)pyrimidin-2-yl)amino)-5-methoxy-N-(2-morpholinoethyl)benzamide] | 85.4 nM | −ve (−ve and +ve indicate that the value is below and above respectively, the no significant effect threshold, defined as 30% inhibition at 1 μg/mL at the time point indicated) | −ve (−ve and +ve indicate that the value is below and above respectively, the no significant effect threshold, defined as 30% inhibition at 1 μg/mL at the time point indicated)
4 nM | > 1330 nM | 285 nM | 0.6 nM | 1.5 nM | Cc1ccc(-n2nc(C(C)(C)C)cc2NC(=O)Nc2ccc(Oc3ccnc(Nc4cccc(C(=O)NCCN5CCN(C)CC5)c4)n3)c3ccccc23)cc1 [Example 25, 3-((4-((4-(3-(3-(tert-butyl)-1-(p-tolyl)-1H-pyrazol-5-yl)ureido)naphthalen-1-yl)oxy)pyrimidin-2-yl)amino)-N-(2-(4-methylpiperazin-1-yl)ethyl)benzamide] | 1.9 nM | −ve (−ve and +ve indicate that the value is below and above respectively, the no significant effect threshold, defined as 30% inhibition at 1 μg/mL at the time point indicated) | −ve (−ve and +ve indicate that the value is below and above respectively, the no significant effect threshold, defined as 30% inhibition at 1 μg/mL at the time point indicated)
5 nM | 14 nM | 356 nM | 1.3 nM | 1.9 nM | COc1ccc(-n2nc(C(C)(C)C)cc2NC(=O)Nc2ccc(Oc3ccnc(Nc4cccc(C(=O)NCCN5CCOCC5)c4)n3)c3ccccc23)cc1 [Example 21, 3-((4-((4-(3-(3-(tert-butyl)-1-(4-methoxyphenyl)-1H-pyrazol-5-yl)ureido)naphthalen-1-yl)oxy)pyrimidin-2-yl)amino)-N-(2-morpholinoethyl)benzamide] | 0.8 nM | −ve (−ve and +ve indicate that the value is below and above respectively, the no significant effect threshold, defined as 30% inhibition at 1 μg/mL at the time point indicated) | −ve (−ve and +ve indicate that the value is below and above respectively, the no significant effect threshold, defined as 30% inhibition at 1 μg/mL at the time point indicated)
